Common to all, as to experiment: growth of human tumour cells (NCI), 48 h
Assay [1] has as its system UACC-257 melanoma.
The subject of assay [2] is OVCAR-4 ovarian.
Assay [3] has as its system NCI-H522 lung.
In assay [4] the test system is KM12 colon.
In assay [5] the test system is CAKI-1 renal.
Assay [6] relates to PC-3 prostate.
Assay [7] deals with RXF 393 renal.
Assay [8] deals with HCT-116 colon.
For assay [9], the system named is 786-0 renal.
Assay [10] deals with K-562 leukemia.
In assay [11] the test system is HOP-92 NSCLC.
Assay [12] relates to NCI-H460 lung.
For assay [13], the system named is T-47D breast.
Assay [14] relates to NCI/ADR-RES ovarian.
The test system of assay [15] is OVCAR-5 ovarian.
The test system of assay [16] is SW-620 colon.
In assay [17] the test system is LOX IMVI melanoma.
Assay [18] concerns HL-60(TB) leukemia.
Assay [19] deals with TK-10 renal.
Assay [20] concerns SK-OV-3 ovarian.

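In this assay, cells in 96-well plates receive the compound at five concentrations for 48 hours. Endpoints are linearly interpolated between the surrounding concentrations. At the TGI there is no net growth.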 A value given as a limit tells only on which side of the number the result lay.

On to `CCOC(=O)c1ccc(OCc2nc3cc(C(F)(F)F)ccc3nc2-c2ccccc2)cc1`, for which the TGI in assay [1], in assay [2], in assay [3], in [4], in assay [5] and in assay [6] was over 100 µM in each case. In addition, the TGI in assay [7], in assay [8], in assay [9], in assay [10], in [11] and in assay [12] was over 100 µM in each case. In addition, the TGI in assay [13], in assay [14], in assay [15], in [16], in assay [17] and in assay [18] was over 100 µM each time. This compound also showed a TGI in assay [19] of over 100 µM.
With `COC(=O)c1c(O)ccc2c1c1cc3ccccc3c(O)c1n2Cc1ccccc1Cl`, the TGI in [1] is over 100 µM; in assay [2] it was 51.1 µM; in assay [3], 29.5 µM; in assay [4], 61.8 µM; in assay [5], 61.9 µM; in assay [6] it was over 100 µM. Moreover, the TGI is over 100 µM in [7]; 28 µM in [8]; 54.1 µM in [9]; over 100 µM in assay [10]; 48.6 µM in [20]; 91.7 µM in [11]. The TGI is 78.4 µM in [12]; 60.7 µM in assay [13]; 64.3 µM in assay [14]; over 100 µM in assay [15]; 74.9 µM in assay [18]; over 100 µM in [19].
Take `COc1cc2c(NCCN(C)C)nc3c4cc5c(cc4ccc3c2cc1OC)OCO5`: the TGI in assay [1] was 7.98 µM; in [2], 7.91 µM; in [3], 8.02 µM; in assay [4], 8.07 µM; in [5] it was 5.88 µM; in assay [6] it was 8.7 µM. For the same compound, the TGI in assay [7] was found to be 7.3 µM; in assay [8] it was 6.77 µM; in assay [9], 6.15 µM; in [10] it was 7.49 µM; in assay [20] it was 8.65 µM; in assay [11], 8.77 µM. Besides, the TGI in assay [12] stood at 5.38 µM; in [13] it was 11.5 µM; in [14] it was 8.31 µM; in assay [15], 6.71 µM; in assay [16], 7.22 µM; in assay [18], 9.52 µM. This compound also returned a TGI in assay [19] of 5.88 µM.
With `O=c1oc2cc(O)ccc2c(O)c1C(c1ccc2ccccc2c1)c1c(O)c2ccc(O)cc2oc1=O`, the TGI in assay [1], in assay [3], in assay [4], in assay [5], in [6] and in assay [7] was over 100 µM throughout. Also, the TGI in assay [8], in [9], in [10], in assay [20], in [11] and in assay [12] was over 100 µM in each case. Moreover, the TGI in [13] is over 100 µM; in assay [14], over 100 µM; in assay [15] it was over 100 µM; in [16] it was over 100 µM; in assay [17], over 100 µM; in [18] it was 69.2 µM. In assay [19], the TGI was over 100 µM.
In the case of `CSC1=NC(=O)CCN1C1OCC(OC(C)=O)C(OC(C)=O)C1OC(C)=O` (stereo not given), the TGI in [1], in assay [2], in assay [3], in assay [4], in assay [5] and in assay [6] was over 31.6 µM in each case. Moreover, the TGI in [7] is 23.6 µM; in assay [8] it was over 31.6 µM; in [9], over 31.6 µM; in [10] it was over 31.6 µM; in [20] it was 29.5 µM; in [11] it was 27 µM. The TGI was over 31.6 µM in assay [12]; over 31.6 µM in assay [13]; over 31.6 µM in assay [14]; over 31.6 µM in assay [15]; over 31.6 µM in [16]; over 23 µM in [18]. In [19], this compound had a TGI of 26 µM.
For the compound `COc1c(C(=O)/C(=N/Nc2cccc(Cl)c2)C(C)=O)c(O)c(OC)c2occc12`, the TGI in assay [1], in assay [3], in [4], in [5], in assay [6] and in assay [7] was over 100 µM in each case. In addition, the TGI in [8], in [9], in assay [10], in assay [20], in [11] and in assay [12] was over 100 µM in each case. For the same compound, the TGI in [13] was 88.9 µM; in [14], over 100 µM; in assay [15], over 100 µM; in assay [16], over 100 µM; in assay [17] it was over 100 µM; in [18] it was over 100 µM. In assay [19], this compound displayed a TGI of over 100 µM.
With `O=C1CC2(CCN(CC3COc4ccccc4O3)CC2)C(=O)N1N1CCCCCC1` (stereo not given), the TGI in [1], in assay [2], in assay [3], in [5], in [6] and in assay [7] was over 100 µM each time. For the same compound, the TGI in assay [8], in assay [9], in assay [10], in [20], in [11] and in [13] was over 100 µM each time. Also, the TGI in assay [14], in assay [15], in assay [17], in assay [18] and in assay [19] was over 100 µM in each case.

These data come from PubChem BioAssay (NCI).
